Key:
Type in all cases: biochemical
[1] = target: T1, AXL kinase (Homo sapiens, UniProt P30530); assay: AXL kinase inhibition, Z'-LYTE FRET; settings: ATP 50 μM
T1 construct: purchased eurofins 14-500
T1 sequence (P30530 473-894 limits assumed): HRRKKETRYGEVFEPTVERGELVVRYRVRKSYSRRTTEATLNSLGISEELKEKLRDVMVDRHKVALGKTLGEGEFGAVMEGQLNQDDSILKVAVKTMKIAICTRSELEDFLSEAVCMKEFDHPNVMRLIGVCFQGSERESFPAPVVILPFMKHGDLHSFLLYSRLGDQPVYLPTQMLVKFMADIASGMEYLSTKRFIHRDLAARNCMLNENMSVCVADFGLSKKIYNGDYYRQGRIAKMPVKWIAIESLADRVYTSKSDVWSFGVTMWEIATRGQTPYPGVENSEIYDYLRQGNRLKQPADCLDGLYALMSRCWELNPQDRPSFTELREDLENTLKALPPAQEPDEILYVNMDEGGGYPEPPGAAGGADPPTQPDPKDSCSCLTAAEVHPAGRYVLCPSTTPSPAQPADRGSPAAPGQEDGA
Source text: (§1) Detection of the activity of kinase: the inhibitory activities of the compounds against AXL kinase (eurofins, 14-500) were detected through a second-order reaction by the Z′-LYTE™ technology (detected by fluorescence, enzyme-coupled form, based on the difference in a sensitivity of phosphorylated and non-phosphorylated polypeptides to proteolytic cleavage), based on the principle of fluorescence resonance energy transfer (FRET), using Z′-LYTE™ FRET peptide substrate (Z′-LYTE™ Tyrosine 6 Peptide Substrate, Invitrogen, PV4122).
Enzymatic reaction: To a 384-well plate was added 5 μL of enzyme-substrate system (50 mM HEPES, pH 6.5, 0.01% BRU-35, 10 mM MgC2, 1 mM EGTA, 0.02% NaNA), and 5 nL of a compound (concentration gradient) was transferred thereto using an echo520 ultramicro-liquid pipetting system. After the plate was shaken at room temperature for 10-20 min, 25 nL of ATP (a final concentration of 50 μM) was transferred thereto using the echo520 ultramicro-liquid pipetting system. After shaking and well mixing, the mixture was centrifuged and reacted at 30° C. in the dark for 1.5 h.
(§2) The data analysis method is as follows:
(§3) Phosphorylation ratio=1−{(emission ratio×F100%−C100%)/[C0%−C100%+emission ratio×(F100%−F0%)]}×100;
(§4) Inhibition rate=100×(1−compound phosphorylation ratio/negative control phosphorylation ratio).
(§5) The IC50 values were calculated by GraphPad Prism software.

[2] = target: T2, AXL kinase domain recombinant protein (Homo sapiens, UniProt P30530); assay: AXL kinase inhibition, ELISA; settings: ATP 5 μM
T2 construct: the AXL kinase domain recombinant protein (eurofins, 14-512); purchased eurofins 14-512
T2 sequence (P30530 536-807 limits assumed): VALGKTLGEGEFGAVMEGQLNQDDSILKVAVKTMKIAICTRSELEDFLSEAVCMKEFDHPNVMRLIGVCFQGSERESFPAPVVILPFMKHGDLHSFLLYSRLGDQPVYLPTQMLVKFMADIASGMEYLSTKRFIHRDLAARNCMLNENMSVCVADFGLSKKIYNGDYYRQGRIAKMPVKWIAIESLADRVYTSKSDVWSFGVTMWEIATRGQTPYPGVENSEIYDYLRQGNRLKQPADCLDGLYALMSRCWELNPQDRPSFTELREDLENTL
Protocol: Detection of the activity of kinase: Enzyme-linked immunosorbent assay (ELISA) technology was used to detect the inhibitory activities of the compounds against the kinase. […] After the liquid in the well was discarded, the plate was washed three times with T-PBS (PBS containing 0.1% Tween-20), 200 μL T-PBS per well, 5 minutes for each time. The enzyme label plate was dried in an oven at 37° C. for 1-2 hours. To each well was added 50 μL of ATP solution diluted with reaction buffer (50 mM HEPES, pH 7.4, 50 mM MgCl2, 0.5 mM MnCl2, 0.2 mM Na3VO4, 1 mM DTT) with a final concentration of 5 μM. […] Two wells with no enzyme for control are required for each experiment. The plate was incubated on a shaker (100 rpm) at 37° C. and reacted for 1 hour. The plate was washed three times with T-PBS. 100 μ/well of primary antibody PY99 dilution was added and the plate was reacted in a shaker at 37° C. for 0.5 hour. The plate was washed three times with T-PBS. 100 μ/well of secondary antibody horseradish peroxidase-labeled goat anti-mouse IgG dilution was added and the plate was reacted in a shaker at 37° C. for 0.5 hour. The plate was washed three times with T-PBS. 2 mg/ml of OPD color solution was added with 100 μ/well (diluted with 0.1 M citric acid-sodium citrate buffer (pH=5.4) containing 0.03% H2O2), and the plate was reacted at 25° C. in the dark for 1-10 minutes. (Ultrasound is required for the dissolution of OPD, and the color solution needs to be prepared for immediate use). 50 μ/well of 2 M H2SO4 was added to stop the reaction, and the wavelength-adjustable enzyme-labeling instrument SPECTRA MAX 190 was used to read the data at a wavelength of 490 nm.
The inhibition rate of the sample was obtained by the following formula: […]
The IC50 values were obtained by regression with the four-parameter method using the software attached to the enzyme-labeling instrument.

[3] = target: T3, Flt3 kinase (Homo sapiens, UniProt P36888); assay: Flt3 kinase inhibition, Z'-LYTE FRET; settings: ATP 500 μM
T3 construct: purchased life PV6253
T3 sequence (P36888 27-993): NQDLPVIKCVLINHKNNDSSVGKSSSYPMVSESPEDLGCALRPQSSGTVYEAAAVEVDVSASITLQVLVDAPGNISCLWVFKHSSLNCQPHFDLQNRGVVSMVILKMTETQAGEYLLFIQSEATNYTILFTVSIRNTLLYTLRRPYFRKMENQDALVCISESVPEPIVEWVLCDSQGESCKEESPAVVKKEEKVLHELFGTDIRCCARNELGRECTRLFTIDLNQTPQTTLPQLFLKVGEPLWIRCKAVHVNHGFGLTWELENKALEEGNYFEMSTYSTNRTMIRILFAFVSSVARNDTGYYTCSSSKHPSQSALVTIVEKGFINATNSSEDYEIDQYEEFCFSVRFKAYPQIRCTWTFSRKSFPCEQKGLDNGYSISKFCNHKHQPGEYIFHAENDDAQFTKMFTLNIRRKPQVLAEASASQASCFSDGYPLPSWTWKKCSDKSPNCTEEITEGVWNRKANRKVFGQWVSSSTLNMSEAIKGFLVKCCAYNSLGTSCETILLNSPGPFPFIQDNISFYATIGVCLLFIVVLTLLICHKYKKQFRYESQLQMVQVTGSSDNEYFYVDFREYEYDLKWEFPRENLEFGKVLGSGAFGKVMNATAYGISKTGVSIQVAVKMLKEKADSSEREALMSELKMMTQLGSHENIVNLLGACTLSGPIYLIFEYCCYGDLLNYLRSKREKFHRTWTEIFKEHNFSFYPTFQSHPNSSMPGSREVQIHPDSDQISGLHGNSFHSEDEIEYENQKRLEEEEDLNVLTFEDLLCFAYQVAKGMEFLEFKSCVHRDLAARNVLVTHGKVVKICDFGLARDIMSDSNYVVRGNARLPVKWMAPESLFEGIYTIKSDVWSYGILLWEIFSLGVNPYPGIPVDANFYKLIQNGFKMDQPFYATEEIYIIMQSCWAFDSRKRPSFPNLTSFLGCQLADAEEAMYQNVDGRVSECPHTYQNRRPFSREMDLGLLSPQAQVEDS
Source text: as §1, with “Flt3” for “AXL”, “(life, PV6253)” for “(eurofins, 14-500)”, “2” for “6”, “PV3191).” for “PV4122).”
Enzymatic reaction: To a 384-well plate were added 5 μL of enzyme-substrate system (50 mM HEPES, pH 7.5, 0.01% BRU-35, 10 mM MgC2, 1 mM EGTA), 2.5 μL of a compound (concentration gradient) and 2.5 μL of a mixed solution of ATP (a final concentration of a substrate Z′-LYTE™ Tyrosine 2 Peptide Substrate was 2 μM, and a final concentration of ATP was 500 μM), and then the plate was incubated at 37° C. in the dark for 1 h.
Detecting reaction: 5 μL of Development Solution (1:64 dilution) was added to each well and the plate was incubated at 37° C. in the dark for 1 h, then 5 μL of Stop Reagent was added.
as §2, §3, §4, §5

| SMILES | IC50 [1] | IC50 [2] | IC50 [3] |
| --- | --- | --- | --- |
| COc1cc2c(Oc3ccc(NC(=O)c4c(C)n(C)c5ccc(OC(F)(F)F)cc5c4=O)cc3F)ccnc2cc1OCCCN1CCOCC1 [CCB-310, N-(3-fluoro-4-((6-methoxy-7-(3-morpholinopropoxy)quinolin-4-yl)oxy)phenyl)-1,2-dimethyl-4-oxo-6-(trifluoromethoxy)-1,4-dihydroquinoline-3-carboxamide] |  | 1.8 nM | 9.5 nM |
| COc1cc2ncnc(Oc3ccc(NC(=O)c4c(C)n(C)c5ccc(OC(F)(F)F)cc5c4=O)cc3F)c2cc1OC [TL-198, N-(4-((6,7-dimethoxyquinazolin-4-yl)oxy)-3-fluorophenyl)-1,2-dimethyl-4-oxo-6-(trifluoromethoxy)-1,4-dihydroquinoline-3-carboxamide] |  | 2.1 nM | 2.3 nM |
| COCCCOc1cc2c(Oc3ccc(NC(=O)c4c(C)n(C)c5ccc(OC(F)(F)F)cc5c4=O)cc3F)ncnc2cc1OC [TL-199, N-(3-fluoro-4-((7-methoxy-6-(3-methoxypropoxy)quinazolin-4-yl)oxy)phenyl)-1,2-dimethyl-4-oxo-6-(trifluoromethoxy)-1,4-dihydroquinoline-3-carboxamide] |  | 1.8 nM | 25.8 nM |
| COc1cc2c(Oc3ccc(NC(=O)c4c(C)n(C)c5ccc(OC(F)(F)F)cc5c4=O)cc3F)ncnc2cc1OCCN1CCOCC1 [TL-209, N-(3-fluoro-4-((6-methoxy-7-(2-morpholinoethoxy)quinazolin-4-yl)oxy)phenyl)-1,2-dimethyl-4-ox o-6-(trifluoromethoxy)-1,4-dihydroquinoline-3-carboxamide] |  | 2 nM | 9.2 nM |
| COc1cc2c(Oc3ccc(NC(=O)c4c(C)n(C)c5ccc(OC(F)(F)F)cc5c4=O)cc3F)ncnc2cc1OCCCN1CCCC1 [TL-212, N-(3-fluoro-4-((6-methoxy-7-(3-(pyrrolidin-1-yl)propoxy)quinazolin-4-yl)oxy)phenyl)-1,2-dimethy 1-4-oxo-6-(trifluoromethoxy)-1,4-dihydroquinoline-3-carboxamide] |  | 1.5 nM | 5.2 nM |
| COCCOc1cc2ncnc(Oc3ccc(NC(=O)c4c(C)n(C)c5ccc(OC(F)(F)F)cc5c4=O)cc3F)c2cc1OCCOC [TL-197, N-(4-((6,7-bis(2-methoxyethoxy)quinazolin-4-yl)oxy)-3-fluorophenyl)-1,2-dimethyl-4-oxo-6-(trifluoromethoxy)-1,4-dihydroquinoline-3-carboxamide] |  | 4.2 nM | 4.7 nM |
| COCCCCOc1cc2ncnc(Oc3ccc(NC(=O)c4c(C)n(C)c5ccc(OC(F)(F)F)cc5c4=O)cc3F)c2cc1OC [TL-204, N-(3-fluoro-4-((6-methoxy-7-(4-methoxybutoxy)quinazolin-4-yl)oxy)phenyl)-1,2-dimethyl-4-oxo-6-(trifluoromethoxy)-1,4-dihydroquinoline-3-carboxamide] |  | 1.6 nM | 11.2 nM |

Other lines, results leading:

| IC50 [1] | IC50 [2] | IC50 [3] | SMILES |
| --- | --- | --- | --- |
| 2.3 nM |  |  | COc1cc2c(Oc3ccc(NC(=O)c4c(C)n(C)c5ccc(OC(F)(F)F)cc5c4=O)cc3F)ncnc2cc1OCCN1CCCC1 [TL-231, N-(3-fluoro-4-((6-methoxy-7-(2-(pyrrolidin-1-yl)ethoxy)quinazolin-4-yl)oxy)phenyl)-1,2-dimethyl-4-oxo-6-(trifluoromethoxy)-1,4-dihydroquinoline-3-carboxamide] |
| 2.4 nM |  |  | COc1cc2ncnc(Oc3ccc(NC(=O)c4c(C)n(C)c5ccc(OC(F)(F)F)cc5c4=O)cc3F)c2cc1OCCCN1CCOCC1 [TL-236, N-(3-fluoro-4-((7-methoxy-6-(3-morpholinopropoxy)quinazolin-4-yl)oxy)phenyl)-1,2-dim ethyl-4-oxo-6-(trifluoromethoxy)-1,4-dihydroquinoline-3-carboxamide] |
| 2.6 nM |  |  | CCOc1cc2ncnc(Oc3ccc(NC(=O)c4c(C)n(C)c5ccc(OC(F)(F)F)cc5c4=O)cc3F)c2cc1OC [TL-241, N-(4-((7-ethoxy-6-methoxyquinazolin-4-yl)oxy)-3-fluorophenyl)-1,2-dimethyl-4-oxo-6-(trifluoromethoxy)-1,4-dihydroquinoline-3-carboxamide] |
|  | 2.2 nM | 6.4 nM | COc1cc2c(Oc3ccc(NC(=O)c4c(C)n(C)c5ccc(OC(F)(F)F)cc5c4=O)cc3F)ncnc2cc1OCCN1CCCCC1 [TL-213, N-(3-fluoro-4-((6-methoxy-7-(2-(piperidin-1-yl)ethoxy)quinazolin-4-yl)oxy)phenyl)-1,2-dimethyl-4-oxo-6-(trifluoromethoxy)-1,4-dihydroquinoline-3-carboxamide] |
